“Also recorded” adds a separate entry of the source.
Legend:
[1] = tested on: LPS-stimulated macrophages; test: Cytokine secretion in TLR-stimulated bone-marrow derived macrophages; format: cell-based, mouse
Protocol: Bone-marrow derived macrophages were differentiated for 7 days in DMEM supplemented with 5 ng/ml recombinant M-CSF (R&D systems), 2 mM glutamine, 10% foetal calf serum, penicillin and streptomycin.
Following stimulation with ligands, the cell culture medium was removed, clarified by centrifugation for 10 min at 14000×g and the concentration of TNFα, IL-6, IL-10, IL-12p40, and RANTES were measured using the Bio-Plex Pro Assay system from Bio-Rad. IFNβ was measured using an ELISA kit from R&D Systems according to the manufacturers' instructions.
RNA was extracted using the RNeasy Micro Kit (Qiagen). cDNA was generated using the iScript cDNA synthesis kit and quantified by qPCR using the SsoFast EvaGreen Supermix (Bio-Rad Laboratories). […] Fold-induction for each gene was reported relative to untreated control cells, which was set to 1. The concentrations of TNFα, IL-6, IL-10, IL-12p40, and RANTES in culture supernatants were measured using the Bio-Plex Pro Assay system from Bio-Rad. Further details in supplementary information.
Following stimulation with ligands, the cell culture medium was removed, clarified by centrifugation for 10 min at 14000×g and the concentration of TNFα, IL-6, IL-10, IL-12p40 and RANTES were measured using the Bio-Plex Pro Assay system from Bio-Rad. IL-1ra and IFNβ were measured using ELISA kits from R&D Systems.

[2] = tested on: AMPK-related kinases; format: biochemical; settings: members of the AMPK subfamily other than SIKs
Protocol: Recombinant SIK1, SIK2, SIK3 were expressed as GST-fusion proteins in HEK293 cells and purified on a glutathione-Sepharose column. […] FLAG-CRTC3 was immunoprecipitated using anti-FLAG M2 agarose, washed in kinase buffer (50 mM Tris/HCl pH 7.4, 10 mM Mg acetate, 0.1 mM EGTA, 2 mM DTT) and reactions initiated by adding 4 U/ml recombinant kinase with 0.1 mM ATP (specific activity 3000 cpm/pmol). Phosphorylation of CRTC3 was monitored by autoradiography as well as immunoblotting using phosphospecific antibodies raised against Ser162, Ser329 and Ser370. […] Kinase profiling was performed as previously described (7) and performed by the International Centre for Kinase Profiling (www.kinase-screen.mrc.ac.uk).

[3] = tested on: LPS-stimulated BMDMs; test: Expression of macrophage markers in LPS-stimulated BMDMs (qPCR); format: cell-based, mouse; settings: for LPS-stimulated expression of SPHK1, LIGHT and Arginase 1: 500 nM
Protocol: FIGS. 10A to 10E. Inhibition of the LKB1-SIK-CRTC3-IL10 signaling axis drives the expression of markers of regulatory macrophages. (FIG. 10A) Effect of SIK inhibitors on the LPS-stimulated expression of LIGHT, SPHK1, Arg1 and IL-1ra (n=4, mean±SD). […] (FIG. 10C) Elevated expression of markers of regulatory macrophage in LKB1−/− macrophages. BMDMs were generated from LysM-Cre/LKB1+/+ and LysM-Cre/LKB1flox/flox mice and stimulated with 100 ng/ml LPS (mean±SD, n=3). (FIG. 10D) CRTC3 is required for the induction of markers of regulatory macrophages. […] LIGHT and SPHK1 mRNA was measured at 2 h and Arg1 at 8 h post-LPS stimulation (mean±SD, n=4). […] The experiment was carried out as in (FIG. 10D) except that BMDMs were generated from IL-10+/+ and IL-10−/− mice (mean±SD, n=4).
mRNA was extracted from cells using the RNeasy Micro Kit following the manufacturers' instructions (Qiagen). cDNA was generated from 1 μg of total RNA using the iScript cDNA synthesis kit and quantified by qPCR using the SsoFast EvaGreen Supermix on a CFX96 real time system (Bio-Rad Laboratories). The relative expression of each gene was calculated from Ct values using the Pfaffl method (5) and was normalized against the mRNA levels of 18S RNA or GAPDH. Results are reported relative to untreated control cells, which was set to 1. The following primers were used: […]

[4] = tested on: CRTC3; test: IL-10 production in macrophages after siRNA knockdown of CRTC3; format: cell-based, mouse; settings: TLR/LPS-stimulated macrophages
Source text: BMDMs were transfected with siRNA oligonucleotides against CRTC1, CRTC2, CRTC3 or non-targetting oligonucleotides as a negative control. […] Gene expression was quantified by qPCR and reported relative to mRNA levels measured in untreated cells (1.0). Knockdown efficiency was monitored by qPCR (mean±SD, n=4).
RNAi in Macrophages RAW264.7 cells or BMDMs were transfected with 100 pmol of SMARTpool siRNA oligos against CREB, CRTC1, CRTC2, CRTC3 or a non-targetting control (Dharmacon) using AMAXA nucleofection. Cells were cultured for 24 h prior to incubation with inhibitors for 1 h followed by stimulation for 1 h with 100 ng/ml LPS. Gene expression was measured by real-time quantitative PCR. For shRNA knockdown of SIKs, lentivirus was generated according to the manufacturer's instructions (Sigma) and RAW264.7 cells were infected using virus harvested 48 and 72 h post-transfection. Infected cells were selected using 3 μg/ml puromycin. QPCR

[5] = tested on: MARK isoforms; test: Kinase assays, MARK isoforms; format: biochemical; settings: in vitro

| Structure (SMILES) | IL-10 secretion ([1]; LPS-stimulated macrophages) | pro-inflammatory cytokine secretion ([1]; LPS-stimulated macrophages) | inhibition of AMPK-related kinases [2] | LPS-stimulated expression of SPHK1, LIGHT and Arginase 1 ([3]; IL-10−/− macrophages) | LPS-stimulated expression of SPHK1, LIGHT and Arginase 1 ([3]; cells treated with CRTC3 siRNA) | effect of compound on IL-10 production after siRNA knockdown of CRTC3 [4] | IFNβ secretion ([1]; LPS) | IL-10 secretion ([1]; in response to TLR ligands) | IL-12p40 secretion ([1]; in response to TLR ligands) | IL-1ra mRNA ([3]; LPS-stimulated macrophages) | mRNAs of regulatory macrophage markers (arginase-1, SPHK1, LIGHT) ([3]; TLR/LPS-stimulated macrophages) | switch of macrophage programme from classically activated towards regulatory phenotype ([3]; quiescent macrophages) | inhibition of MARK isoforms [5] |
| --- | --- | --- | --- | --- | --- | --- | --- | --- | --- | --- | --- | --- | --- |
| COc1ccc(N(C(=O)Nc2c(C)cccc2C)c2cc(Nc3ccc(N4CCN(C)CC4)cc3)ncn2)c(OC)c1 [HG-9-91-01, 1-(2,4-dimethoxyphenyl)-3-(2,6-dimethylphenyl)-1-(6-((4-(4-methylpiperazin-1-yl)phenyl)amino)pyrimidin-4-yl)urea] | stimulate IL-10 secretion in a dose dependent manner; also recorded: increased | greatly suppressed | did not inhibit any other member | greatly reduced | did not occur | abolishes the effects; also recorded: CRTC3 was required | – | – | – | – | – | – | – |
| O=C(NCCCNc1nc(Nc2cccc(CN3CCOCC3)c2)ncc1C1CC1)C1CCC1 [MRT67307] | stimulate IL-10 secretion in a dose dependent manner; also recorded: far higher levels of IL-10 | much lower levels of pro-inflammatory cytokines | potently inhibits | – | – | completely suppressed the effects | potently inhibited | high levels of IL-10 | low levels of IL-12p40 | greatly increased | stimulating the production | switched their maturation programme from the classically activated route towards the regulatory phenotype | comparable potency to the IKK-related kinases |
